Results as given in EP2266622A2, “Prodrugs containing novel bio-cleavable linkers” (Piramal Life Sciences Limited, priority 2004, dated 2006).
Marks after values point to notes of the source that are not given here.

What was measured:
[1] = test system: minimal muscular or neurological impairment; assay: Test 1: Acute toxicity, minimal motor impairment (rotorod), mice i.p.; format: in vivo; settings: for Rotorod Toxicity (number of animals exhibiting toxicity/number of animals tested): 300 mg/kg (+); for Rotorod Toxicity: class symbol = dose
Procedure: (§1) Most of the prodrugs and mutual prodrugs of anticonvulsants described in this invention were evaluated at National Institute of Neurological Disorders and Stroke (NINDS), National Institute of Health (NIH), under their Antiepileptic Screening Program (ASP).
(§2) Test 1 is an initial screening for anticonvulsant activity in the Maximal Electroshock Test (MES) and Subcutaneous Metrazol Seizure Threshold Test (scMET) models combined with an initial assessment of toxicity (TOX) in mice via i.p. injection (see further explanation below). The data for each condition is presented as N/F, where N = number of animals protected from seizure and F = number of animals tested. For test of toxicity, N = number of animals displaying toxic effects and F = number of animals tested. Any deaths occurring during the test were recorded.

clonic seizures = assay: Test 1: Subcutaneous Metrazol Seizure Threshold Test (scMET), mice i.p.; format: in vivo; settings: for ScMET: class symbol = dose
Procedure: as §1, §2
Subcutaneous Metrazol Seizure Threshold Test (scMET): Subcutaneous injection of the convulsant metrazol produces clonic seizures in laboratory animals. […] Animals were pretreated with various doses of the test compound given by i.p. injection. At the previously determined Time to Peak Effect (TPE) of the test compound, the dose of metrazol which will produce convulsions in 97% of animals (CD97: 85 mg/kg in mice) was injected into a loose fold of skin in the midline of the neck. The animals were placed in isolation cages to minimize stress and observed for the next 30 minutes for the presence or absence of a seizure. An episode of clonic spasms, approximately […], of the fore and/or hind limbs, jaws, or vibrissae is taken as the end point.

MES-induced seizures [2] = assay: Test 1: Maximal Electroshock Test (MES), mice i.p.; format: in vivo; settings: for MES: class symbol = dose
Procedure: as §1, §2
(§3) Maximal Electroshock Test (MES): The MES is a model for generalized tonic-clonic seizure and provides an indication of a compound's ability to prevent seizure spread when all neuronal circuits in the brain are maximally active. These seizures are highly reproducible and electro-physiologically consistent with human seizures. For all tests based on MES convulsions, 60 Hz of alternating current (50 mA in mice) is delivered for […] by corneal electrodes, which have been primed with an electrolyte solution containing an anesthetic agent (0.5% tetracaine hydrochloride). Mice were tested at various intervals following doses of 30, 100 and 300 mg/kg of test compound given by i.p. injection of a volume of 0.01 mL/g. Other doses can be used if indicated by previously known pharmacology. An animal is considered "protected" from MES-induced seizures upon abolition of the hind-limb tonic extensor component of the seizure.

MES-induced seizures [3] = assay: Test 2: MES, rats p.o.; format: in vivo; settings: 30 mg/kg
Excerpt: as §3
Rats received test compounds orally.

Compound: CC(=O)Oc1ccccc1C(=O)O [Aspirin]
- haemorrhagic lesions (area), Mean ± S.E.M. (mucosal damage; rat, in vivo, po, 100 mg/kg): 2.7 ± 0.9 mm^2
- ulcer development (in words) (mucosal damage; rat, in vivo, po, 100 mg/kg): severe haemorrhagic lesions
- gastrointestinal safety (summary in words) (mucosal damage; rats, oral, high equivalent doses compared to aspirin): caused severe ulcers

Compound: CCOC(=O)CC1(CNC(=O)OCCSSCCO[N+](=O)[O-])CCCCC1 [I-A1-NOPD1]
- Rotorod Toxicity (number of animals exhibiting toxicity/number of animals tested) ([1]; 0.5 h): 4/4
- Rotorod Toxicity ([1]; 4.0 h): - (- = no activity or no toxicity at 300 mg/kg)
- ScMET (number of animal protected/number of animal tested) (clonic seizures; 300 mg/kg (+), 0.5 h): 1/1
- ScMET (clonic seizures; 4.0 h): - (- = no activity or no toxicity at 300 mg/kg)
- MES (number of animal protected/number of animal tested) (MES-induced seizures [2]; 100 mg/kg (++), 0.25 hours after dosing): (1/3)^k
- MES (number of animal protected/number of animal tested) (MES-induced seizures [2]; 300 mg/kg (+), 0.5 h): 1/1
- MES (MES-induced seizures [2]; 0.5 h): + (+ = activity or toxicity at 300 mg/kg)
- MES (MES-induced seizures [2]; 4.0 h): - (- = no activity or no toxicity at 300 mg/kg)
- MES (MES-induced seizures [2]; at 0.25 hours after dosing (footnote k)): ++ (++ = activity or toxicity at 100 mg/kg)

Compound: CCOC(=O)CC1(CNC(=O)OCCSSCC(=O)OC)CCCCC1 [I-A1-PD5]
- toxicity (Test 1, in words) [1]: no or mild toxicity
- Rotorod Toxicity (number of animals exhibiting toxicity/number of animals tested) ([1]; 0.5 h): 3/4
- Rotorod Toxicity ([1]; 0.5 h): + (+ = activity or toxicity at 300 mg/kg)
- Rotorod Toxicity ([1]; 4.0 h): - (- = no activity or no toxicity at 300 mg/kg)
- ScMET (clonic seizures; 0.5 h): + (+ = activity or toxicity at 300 mg/kg)
- ScMET (clonic seizures; 4.0 h): - (- = no activity or no toxicity at 300 mg/kg)
- activity in MES (Test 1, in words) (MES-induced seizures [2]): active in MES
- MES (MES-induced seizures [2]; 0.5 h): + (+ = activity or toxicity at 300 mg/kg)
- MES (MES-induced seizures [2]; 4.0 h): - (- = no activity or no toxicity at 300 mg/kg)

Compound: CS(=O)(=O)NC(=O)OCCSSCCOC(=O)Nc1nnc(-c2cccc(Cl)c2Cl)c(N)n1 [I-A1-PD15]
- toxicity (Test 1, in words) [1]: no or mild toxicity
- Rotorod Toxicity ([1]; 0.5 h): - (- = no activity or no toxicity at 300 mg/kg)
- Rotorod Toxicity ([1]; 4.0 h): - (- = no activity or no toxicity at 300 mg/kg)
- ScMET (clonic seizures; 0.5 h): - (- = no activity or no toxicity at 300 mg/kg)
- ScMET (clonic seizures; 4.0 h): - (- = no activity or no toxicity at 300 mg/kg)
- activity in MES (Test 1, in words) (MES-induced seizures [2]): active in MES
- MES (number of animal protected/number of animal tested) (MES-induced seizures [2]; 100 mg/kg (++), 4.0 h): 2/3
- MES (number of animal protected/number of animal tested) (MES-induced seizures [2]; 300 mg/kg (+), 0.5 h): (1/1)
- MES (number of animal protected/number of animal tested) (MES-induced seizures [2]; 300 mg/kg (+), 4.0 h): 1/1
- MES (MES-induced seizures [2]; 0.5 h): + (+ = activity or toxicity at 300 mg/kg)
- MES (number of animal protected/number of animal tested) (MES-induced seizures [3]; 0.50 h): 0/4
- MES (number of animal protected/number of animal tested) (MES-induced seizures [3]; 1.00 h): 1/4
- MES (number of animal protected/number of animal tested) (MES-induced seizures [3]; 2.00 h): 3/4
- MES (number of animal protected/number of animal tested) (MES-induced seizures [3]; 4.00 h): 4/4
